Measured values published in article doi:10.1101/679977v1 (bioRxiv, 2019).
Square brackets hold non-standard residues; d marks the D form. Peptide text beside a SMILES is read from it.

Experiments:
Format in all cases: cell-based
[1] = tested on: Beneficial strains; assay: Geometric mean of MICs; settings: geometric mean of MICs against beneficial strains; >128 counted as 256 μM
[2] = tested on: E. coli; assay: Geometric mean of MICs, selectivity and targeting indices; settings: for TI Beneficial strains (targeting index): GM(E. coli)/GM(beneficial strains); for TI Beneficial strains (targeting index) / TI Pathogenic strains (targeting index): smaller = greater specificity; for TI Pathogenic strains (targeting index): GM(E. coli)/GM(other pathogenic strains); for SI E. coli (selectivity index): MHC/GM (E. coli), MHC >128 counted as 256 μM, larger = greater cell selectivity; for TI All (TIall, targeting index): all strains, smaller = greater specificity for E. coli; for GM E. coli: geometric mean of MICs against the 6 E. coli strains, >128 counted as 256 μM
[3] = tested on: E. coli ATCC25922; assay: Salt, serum, acid and alkaline sensitivity; settings: for MIC, Control: absence of physiological salts, serum, acid and alkaline; for MIC, FeCl3: in presence of 4μM FeCl3 (final); for MIC, MgCl2: in presence of 1 mM MgCl2; for MIC, KCl: in presence of 4.5 mM KCl (final); for MIC, NaCl: in presence of 150 mM NaCl (final); for MIC, PH=2: peptide incubated at pH=2 for 4 h prior to MIC determination; for MIC, PH=4: peptide incubated at pH=4 for 4 h prior to MIC determination; for MIC, PH=10: peptide incubated at pH=10 for 4 h prior to MIC determination; for MIC, PH=12: peptide incubated at pH=12 for 4 h prior to MIC determination

SMILES	GM Beneficial strains [1] [µM]	TI Beneficial strains (targeting index) [2]	TI Pathogenic strains (targeting index) [2]	SI E. coli (selectivity index) [2]	TI All (TIall, targeting index) [2]	GM E. coli [2] [µM]	MIC, Control [3] [µM]	MIC, FeCl3 [3] [µM]	MIC, MgCl2 [3] [µM]	MIC, KCl [3] [µM]	MIC, NaCl [3] [µM]	MIC, PH=2 [3] [µM]	MIC, PH=4 [3] [µM]	MIC, PH=10 [3] [µM]	MIC, PH=12 [3] [µM]
CC[C@H](C)[C@H](NC(=O)CN)C(=O)NCC(=O)N[C@@H](C)C(=O)N[C@H](C(=O)N[C@@H](CC(C)C)C(=O)N[C@@H](CCCCN)C(=O)N[C@H](C(=O)N[C@@H](CC(C)C)C(=O)N[C@H](C(=O)N[C@H](C(=O)NCC(=O)N[C@@H](CC(C)C)C(=O)N1CCC[C@H]1C(=O)N[C@@H](C)C(=O)N[C@@H](CC(C)C)C(=O)N[C@H](C(=O)N[C@@H](CO)C(=O)N[C@@H](Cc1c[nH]c2ccccc12)C(=O)N[C@H](C(=O)N[C@@H](CCCCN)C(=O)N[C@@H](CCCNC(=N)N)C(=O)N[C@@H](CCCCN)C(=O)N[C@@H](CCCNC(=N)N)C(=O)N[C@@H](CCC(N)=O)C(=O)N[C@@H](CCC(N)=O)C(N)=O)[C@@H](C)CC)[C@@H](C)CC)[C@@H](C)O)[C@@H](C)O)C(C)C)C(C)C [MLT, Melittin, reference compound]	2.245	1.122	0.630	0.794	0.876	2.520	–	–	–	–	–	–	–	–	–
CC[C@H](C)[C@H](NC(=O)CNC(=O)[C@H]1CCCN1C(=O)[C@H](CCCCN)NC(=O)[C@H](Cc1c[nH]c2ccccc12)NC(=O)[C@@H](NC(=O)[C@H](CCCCN)NC(=O)[C@H](CCCCN)NC(=O)[C@@H](N)Cc1c[nH]c2ccccc12)[C@@H](C)CC)C(=O)N[C@@H](CCCCN)C(=O)N[C@@H](CCCCN)C(=O)N[C@@H](Cc1c[nH]c2ccccc12)C(=O)N[C@@H](CCCCN)C(=O)N[C@@H](CCCCN)C(=O)O [Peptide 8] (H-WKKIWK[dP]GIKKWKK-OH; N-terminus and C-terminus assumed)	256.000	0.079	0.079	12.699	0.079	20.159	16	16	32	16	>64	64	32	16	64
CC[C@H](C)[C@H](NC(=O)CNC(=O)[C@H]1CCCN1C(=O)[C@H](CCCCN)NC(=O)[C@H](Cc1c[nH]c2ccccc12)NC(=O)[C@@H](NC(=O)[C@H](CCCCN)NC(=O)[C@@H](NC(=O)[C@@H](N)Cc1c[nH]c2ccccc12)[C@@H](C)CC)[C@@H](C)CC)C(=O)N[C@@H](CCCCN)C(=O)N[C@@H](CCCCN)C(=O)N[C@@H](Cc1c[nH]c2ccccc12)C(=O)N[C@@H](CCCCN)C(=O)N[C@@H](CCCCN)C(=O)O [Peptide 9] (H-WIKIWK[dP]GIKKWKK-OH; N-terminus and C-terminus assumed)	161.270	0.111	0.088	14.255	0.100	17.959	16	16	64	32	>64	32	32	16	16
CC[C@H](C)[C@H](NC(=O)CNC(=O)[C@H]1CCCN1C(=O)[C@H](CCCCN)NC(=O)[C@H](Cc1c[nH]c2ccccc12)NC(=O)[C@@H](NC(=O)[C@H](CCCCN)NC(=O)[C@H](CCCCN)NC(=O)[C@@H](N)Cc1c[nH]c2ccccc12)[C@@H](C)CC)C(=O)N[C@@H](CCCCN)C(=O)N[C@@H](CCCCN)C(=O)N[C@@H](Cc1c[nH]c2ccccc12)C(=O)N[C@H](C(=O)N[C@@H](CCCCN)C(=O)NCC(=O)NCC(=O)NCC(=O)N[C@@H](CCCCN)C(=O)O)[C@@H](C)CC [Peptide 5] (H-WKKIWK[dP]GIKKWIKGGGK-OH; N-terminus and C-terminus assumed)	256.000	0.044	0.050	22.627	0.047	11.314	8	8	32	8	>64	32	32	16	16
CC[C@H](C)[C@H](NC(=O)CNC(=O)[C@H]1CCCN1C(=O)[C@H](CCCCN)NC(=O)[C@H](Cc1c[nH]c2ccccc12)NC(=O)[C@@H](NC(=O)[C@@H](N)CCCCN)[C@@H](C)CC)C(=O)N[C@@H](CCCCN)C(=O)N[C@@H](CCCCN)C(=O)N[C@@H](Cc1c[nH]c2ccccc12)C(=O)O [Peptide 1] (H-KIWK[dP]GIKKW-OH; N-terminus and C-terminus assumed)	256.000	1.000	1.000	1.000	1.000	256.000	>64	>64	>64	>64	>64	>64	>64	>64	>64
CC[C@H](C)[C@H](NC(=O)CNC(=O)[C@H]1CCCN1C(=O)[C@H](CCCCN)NC(=O)[C@H](Cc1c[nH]c2ccccc12)NC(=O)[C@@H](NC(=O)[C@H](CCCCN)NC(=O)[C@H](CCCCN)NC(=O)[C@H](Cc1c[nH]c2ccccc12)NC(=O)CNC(=O)CNC(=O)CNC(=O)[C@H](C)NC(=O)[C@H](CO)NC(=O)[C@H](CC(C)C)NC(=O)[C@H](CCCNC(=N)N)NC(=O)[C@@H](NC(=O)[C@H](CCCNC(=N)N)NC(=O)[C@@H]1CCCN1C(=O)[C@H](CCCNC(=N)N)NC(=O)[C@H](CCCCN)NC(=O)[C@@H](N)CCC(N)=O)C(C)C)[C@@H](C)CC)C(=O)N[C@@H](CCCCN)C(=O)N[C@@H](CCCCN)C(=O)N[C@@H](Cc1c[nH]c2ccccc12)C(=O)N[C@H](C(=O)N[C@@H](CCCCN)C(=O)O)[C@@H](C)CC [Peptide 12] (H-QKRPRVRLSAGGGWKKIWK[dP]GIKKWIK-OH; N-terminus and C-terminus assumed)	256.000	0.031	0.039	32.000	0.035	8.000	8	8	32	8	>64	16	8	16	16
